Results reported in patent US10597388B2, “Pyridazinone herbicides” (FMC CORPORATION, priority 2014, dated 2020).

What was measured:
Experiment in all cases: Test C greenhouse herbicide test, pre- and postemergence
Type in all cases: in vivo
[1] = system: velvetleaf (Abutilon theophrasti)
Outline: (§1)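 Greenhouse pots; pre-em on seeded loam:sand blend, post-em on 2–18 cm plants (1–4 leaf) in sphagnum peat/vermiculite medium. Formulation: non-phytotoxic solvent + surfactant. Read-out: visual % control (0–100) vs controls at 13–15 d.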

[2] = system: ryegrass, Italian (Italian ryegrass, Lolium multiflorum)
Outline: as §1

[3] = system: morningglory (Ipomoea coccinea)
Outline: as §1

[4] = system: lambsquarters (Chenopodium album)
Outline: as §1

[5] = system: nutsedge, yellow (yellow nutsedge, Cyperus esculentus)
Outline: as §1

[6] = system: wheat (winter wheat, Triticum aestivum)
Outline: as §1

[7] = system: barnyardgrass (Echinochloa crus-galli)
Outline: as §1

[8] = system: foxtail, giant (giant foxtail, Setaria faberii)
Outline: as §1

[9] = system: blackgrass (Alopecurus myosuroides)
Outline: as §1

[10] = system: soybean (Glycine max)
Outline: as §1

[11] = system: crabgrass, large (large crabgrass, Digitaria sanguinalis)
Outline: as §1

[12] = system: waterhemp (common waterhemp, Amaranthus rudis)
Outline: as §1

[13] = system: pigweed (Amaranthus retroflexus)
Outline: as §1

[14] = system: corn (Zea mays)
Outline: as §1

[15] = system: galium (catchweed bedstraw, Galium aparine)
Outline: as §1

[16] = Postemergence, 31 g ai/ha, scale 0 to 100 (0 no effect, 100 complete control)
[17] = Postemergence, 62 g ai/ha, 0 to 100 scale (0 no effect, 100 complete control)
[18] = Postemergence, 250 g ai/ha, scale 0 to 100, 0 no effect, 100 complete control, 13 to 15 d
[19] = Preemergence, 31 g ai/ha, scale 0 to 100, 0 is no effect, 100 is complete control
[20] = Preemergence, 62 g ai/ha, scale 0 to 100, 0 is no effect, 100 is complete control
[21] = Preemergence, 125 g ai/ha, scale 0 to 100, 0 is no effect, 100 is complete control
[22] = Preemergence, 250 g ai/ha, scale 0 to 100, 0 no effect, 100 complete control
[23] = postemergence, 125 g ai/ha, scale 0 to 100, 0 no effect, 100 complete control

## Cc1nn(C)c(=O)c(-c2ccc(Cl)c3ccccc23)c1O [Compound 139]
[1]; [16]
  Plant response rating, Velvetleaf: 70
[1]; [17]
  Velvetleaf plant response rating: 80
[1]; [18]
  Plant response rating, Velvetleaf: 100
[1]; [19]
  Plant response rating, Velvetleaf: 60
[1]; [20]
  Plant response rating, Velvetleaf: 85
[1]; [21]
  Plant response rating, Velvetleaf: 100
[1]; [22]
  Velvetleaf plant response rating: 100
[1]; [23]
  Velvetleaf plant response rating: 95
[2]; [16]
  Plant response rating, Ryegrass, Italian: 5
[2]; [17]
  Ryegrass, Italian plant response rating: 10
[2]; [18]
  Plant response rating, Ryegrass, Italian: 60
[2]; [19]
  Plant response rating, Ryegrass, Italian: 95
[2]; [20]
  Plant response rating, Ryegrass, Italian: 100
[2]; [21]
  Plant response rating, Ryegrass, Italian: 100
[2]; [22]
  Ryegrass, Italian plant response rating: 100
[2]; [23]
  Ryegrass, Italian plant response rating: 35
[3]; [16]
  Plant response rating, Morningglory: 98
[3]; [17]
  Morningglory plant response rating: 100
[3]; [18]
  Plant response rating, Morningglory: 100
[3]; [19]
  Plant response rating, Morningglory: 85
[3]; [20]
  Plant response rating, Morningglory: 90
[3]; [21]
  Plant response rating, Morningglory: 95
[3]; [22]
  Morningglory plant response rating: 98
[3]; [23]
  Morningglory plant response rating: 100
[4]; [16]
  Plant response rating, Lambsquarters: 98
[4]; [17]
  Lambsquarters plant response rating: 95
[4]; [18]
  Plant response rating, Lambsquarters: 100
[4]; [19]
  Plant response rating, Lambsquarters: 100
[4]; [20]
  Plant response rating, Lambsquarters: 90
[4]; [21]
  Plant response rating, Lambsquarters: 95
[4]; [22]
  Lambsquarters plant response rating: 98
[4]; [23]
  Lambsquarters plant response rating: 100
[5]; [16]
  Plant response rating, Nutsedge, Yellow: 55
[5]; [17]
  Nutsedge, Yellow plant response rating: 75
[5]; [18]
  Plant response rating, Nutsedge, Yellow: 85
[5]; [19]
  Plant response rating, Nutsedge, Yellow: 65
[5]; [20]
  Plant response rating, Nutsedge, Yellow: 60
[5]; [21]
  Plant response rating, Nutsedge, Yellow: 85
[5]; [22]
  Nutsedge, Yellow plant response rating: 90
[5]; [23]
  Nutsedge, Yellow plant response rating: 70
[6]; [16]
  Plant response rating, Wheat: 45
[6]; [17]
  Wheat plant response rating: 55
[6]; [18]
  Plant response rating, Wheat: 90
[6]; [19]
  Plant response rating, Wheat: 0
[6]; [20]
  Plant response rating, Wheat: 10
[6]; [21]
  Plant response rating, Wheat: 15
[6]; [22]
  Wheat plant response rating: 10
[6]; [23]
  Wheat plant response rating: 60
[7]; [16]
  Plant response rating, Barnyardgrass: 25
[7]; [17]
  Barnyardgrass plant response rating: 20
[7]; Postemergence, 125 g ai/ha, scale 0 to 100, 0 is no effect, 100 is complete control
  Plant response rating, Barnyardgrass: 40
[7]; [18]
  Plant response rating, Barnyardgrass: 60
[7]; [19]
  Plant response rating, Barnyardgrass: 20
[7]; [20]
  Plant response rating, Barnyardgrass: 55
[7]; [21]
  Plant response rating, Barnyardgrass: 75
[7]; [22]
  Barnyardgrass plant response rating: 95
[8]; [16]
  Plant response rating, Foxtail, Giant: 20
[8]; [17]
  Foxtail, Giant plant response rating: 30
[8]; [18]
  Plant response rating, Foxtail, Giant: 60
[8]; [19]
  Plant response rating, Foxtail, Giant: 35
[8]; [20]
  Plant response rating, Foxtail, Giant: 65
[8]; [21]
  Plant response rating, Foxtail, Giant: 85
[8]; [22]
  Foxtail, Giant plant response rating: 95
[8]; [23]
  Foxtail, Giant plant response rating: 30
[9]; [16]
  Plant response rating, Blackgrass: 20
[9]; [17]
  Blackgrass plant response rating: 50
[9]; [18]
  Plant response rating, Blackgrass: 10
[9]; [19]
  Plant response rating, Blackgrass: 50
[9]; [20]
  Plant response rating, Blackgrass: 55
[9]; [21]
  Plant response rating, Blackgrass: 60
[9]; [22]
  Blackgrass plant response rating: 90
[9]; [23]
  Blackgrass plant response rating: 60
[10]; [16]
  Plant response rating, Soybean: 45
[10]; [17]
  Soybean plant response rating: 55
[10]; [18]
  Plant response rating, Soybean: 60
[10]; [19]
  Plant response rating, Soybean: 25
[10]; [20]
  Plant response rating, Soybean: 35
[10]; [21]
  Plant response rating, Soybean: 60
[10]; [22]
  Soybean plant response rating: 80
[10]; [23]
  Soybean plant response rating: 65
[11]; [16]
  Plant response rating, Crabgrass, Large: 20
[11]; [17]
  Crabgrass, Large plant response rating: 10
[11]; [18]
  Plant response rating, Crabgrass, Large: 40
[11]; [19]
  Plant response rating, Crabgrass, Large: 5
[11]; [20]
  Plant response rating, Crabgrass, Large: 30
[11]; [21]
  Plant response rating, Crabgrass, Large: 20
[11]; [22]
  Crabgrass, Large plant response rating: 50
[11]; [23]
  Crabgrass, Large plant response rating: 30
[12]; [16]
  Plant response rating, Waterhemp: 98
[12]; [17]
  Waterhemp plant response rating: 100
[12]; [18]
  Plant response rating, Waterhemp: 100
[12]; [19]
  Plant response rating, Waterhemp: 100
[12]; [20]
  Plant response rating, Waterhemp: 100
[12]; [21]
  Plant response rating, Waterhemp: 100
[12]; [22]
  Waterhemp plant response rating: 100
[12]; [23]
  Waterhemp plant response rating: 100
[13]; [16]
  Plant response rating, Pigweed: 80
[13]; [17]
  Pigweed plant response rating: 95
[13]; [18]
  Plant response rating, Pigweed: 98
[13]; [19]
  Plant response rating, Pigweed: 70
[13]; [20]
  Plant response rating, Pigweed: 98
[13]; [21]
  Plant response rating, Pigweed: 100
[13]; [22]
  Pigweed plant response rating: 100
[13]; [23]
  Pigweed plant response rating: 98
[14]; [16]
  Plant response rating, Corn: 5
[14]; [17]
  Corn plant response rating: 0
[14]; [18]
  Plant response rating, Corn: 15
[14]; [19]
  Plant response rating, Corn: 0
[14]; [20]
  Plant response rating, Corn: 0
[14]; [21]
  Plant response rating, Corn: 10
[14]; [22]
  Corn plant response rating: 15
[14]; [23]
  Corn plant response rating: 15
[15]; [16]
  Plant response rating, Galium: 95
[15]; [17]
  Galium plant response rating: 95
[15]; [18]
  Plant response rating, Galium: 100
[15]; [19]
  Plant response rating, Galium: 90
[15]; [20]
  Plant response rating, Galium: 90
[15]; [21]
  Plant response rating, Galium: 100
[15]; [22]
  Galium plant response rating: 100
[15]; [23]
  Galium plant response rating: 100
